Data published in PubChem BioAssay AID1013 (Columbia University Molecular Screening Center, 2008).
Active and inactive are the calls of the source. No rule for the calls is given here.

Experiment: blockers of VCAM1 upregulation by TNFa – imaging, TNFa stimulus, retest and dose response, confirmation (AID 1013);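 as to cell count: compound on cells 1 h before TNFa then 24 h more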
Details: TNFa-stimulated cells, VCAM1 expression imaging; at 2 µM; stronger effect = higher value

| Compound | inhibition |
| --- | --- |
| Cc1nc2sc(C(c3ccc(Cl)cc3)N3CC(C)OC(C)C3)c(O)n2n1 (centres undefined) | -3% (inactive) |
| COc1ccc(OC)c2sc(NC(=O)CCS(=O)(=O)c3ccccc3)nc12 | 23% (inactive) |
| COc1ccc2[nH]c(=O)c(CN(C(=O)c3ccncc3)C(C)C)cc2c1 | -5.2% (inactive) |
| O=C(O)C1CC=CCC1C(=O)N1CCCC1 (centres undefined) | -1.4% (inactive) |
| Cc1cccnc1Nc1nc(-c2ccccn2)cs1 | -2.3% (inactive) |
| CC(=O)c1cccc(Nc2nc(-c3cccc([N+](=O)[O-])c3)cs2)c1 | 9.3% (inactive) |
| Cc1cccc(OCCN2CSC(=S)N(C)C2)c1 | -5.7% (inactive) |
| O=C(CN1CCN(c2nc(-c3ccc(F)cc3)cs2)CC1)Nc1ccc2c(c1)OCO2 | 16.2% (inactive) |
| CN1CCCCc2c1[nH]c1ccccc1c2=O | 5.5% (inactive) |
| CCCn1c(SCC(=O)NCc2ccco2)nnc1C(C)C | -9.8% (inactive) |
| CCOc1ccc(C=O)cc1CN1CCCCC1 | 1.5% (inactive) |
| COc1ccc(Cn2nnnc2C(c2cccs2)N2CCSCC2)cc1 (centres undefined) | -1.3% (inactive) |
| COc1ccc(/C=N/NC(=O)c2ccccc2Cl)cc1CSc1nc2ccccc2s1 | 13.7% (inactive) |
| Cc1ccc(OCc2ccoc2C(=O)O)cc1C | 2.2% (inactive) |
| CCCCSc1nc(C)cc(SCC(=O)N/N=C/c2cccc(OC)c2O)n1 | 22.8% (inactive) |
| COc1ccc(Oc2cc(NC(=O)c3nn(C)cc3[N+](=O)[O-])cc([N+](=O)[O-])c2)cc1 | 74.7% (inactive) |
| CCn1c(=O)cc(OCC(=O)NCc2ccco2)c2ccccc21 | -6.7% (inactive) |
| O=c1ccc(Oc2nc(N3CCOCC3)nc(N3CCOCC3)n2)nn1-c1ccccc1 | 9% (inactive) |
| Cn1nc(C(=O)NCC2CCCO2)c2ccccc2c1=O (centres undefined) | -9% (inactive) |
| CCNC(=O)CCn1nc(-c2ccc(Cl)cc2)c2ccccc2c1=O | -0.3% (inactive) |
| CSc1ccc(CNC2CN3CCC2CC3)cc1 (centres undefined) | 6.9% (inactive) |
| O=C(NCCO)C(c1ccccc1)c1ccccc1 | -14.4% (inactive) |
| COc1ccc(Cl)c(NC(=O)Nc2c(C)n(-c3ccccc3)c(=O)n2C)c1 | -17.4% (inactive) |
| COC1(c2ccccc2)NC(=S)NN=C1c1ccccc1 (centres undefined) | -8.1% (inactive) |
| O=C1C(Cc2ccccc2)NC(=S)N1c1ccccc1 (centres undefined) | 9.6% (inactive) |
| CO/N=C/C(=N\Nc1ccc(C)cc1)C(=O)c1ccc(OC)cc1 | 29% (inactive) |

| Compound | inhibition |
| --- | --- |
| CC(C)NC1CS(=O)(=O)CC1O (centres undefined) | -13.7% (inactive) |
| Oc1ccc(N2CCN(c3ncnc4sc5c(c34)CCC5)CC2)cc1 | 10.1% (inactive) |
| S=c1[nH]nc(COc2ccc3c(c2)OCO3)n1-c1ccccc1 | 1% (inactive) |
| O=C(CSc1nc2ccccc2s1)NNC(=S)Nc1ccc(Br)cc1 | 1.8% (inactive) |
| Cc1ccc(-c2nc(NC(=O)c3nn(C)cc3[N+](=O)[O-])sc2C)cc1 | 91.2% (inactive) |
| O=C(c1ccc(Cl)cc1)N1CCCOC1 | -7.1% (inactive) |
| COC(=O)c1sccc1NC(=O)c1ccc(Br)s1 | 4% (inactive) |
| CC1=C(C#N)C(Nc2cccc(C)n2)(C(F)(F)F)C(=O)N1 (centres undefined) | -1% (inactive) |
| COc1ccc(CCN(Cc2cc3cccc(C)c3[nH]c2=O)C(=O)N2CCCC2)cc1OC | 5.6% (inactive) |
| CC(C)c1nnc(NC(=O)CCC(=O)N2CCN(C3CCCCC3)CC2)s1 | 2.9% (inactive) |
| CCCNS(=O)(=O)c1ccc2c(c1)CCCN2C(C)=O | -18.5% (inactive) |
| COc1ccc(-c2cc(C(F)(F)F)nc(S(=O)(=O)CCC(=O)N3CCOCC3)n2)cc1 | 20.8% (inactive) |
| COc1ccc(-c2nc(C#N)c(NCCCN(C)C)o2)cc1OC | -0.1% (inactive) |
| CC1(C)Cc2c(oc3ncn4ncnc4c23)CO1 | -8% (inactive) |
| Nc1sccc1C(=O)c1ccc(Cl)cc1 | -3.9% (inactive) |
| COc1cccc(C(=O)COc2cccc(NC(=O)c3cccc([N+](=O)[O-])c3)c2)c1 | 1.6% (inactive) |
| Cc1cc(C)cc(NC(=O)CC2NCCNC2=O)c1 (centres undefined) | 7.4% (inactive) |
| OCCCCNc1cccc2ccccc12 | -3.2% (inactive) |
| N#Cc1nc(-c2ccco2)oc1N1CCOCC1 | -13.5% (inactive) |
| COc1ccc(S(=O)(=O)NC(CC(=O)NCc2ccco2)C(C)C)cc1 (centres undefined) | 4.6% (inactive) |
| CCOC(=O)c1oc2ccccc2c1NC(=O)Cc1cccs1 | -16.8% (inactive) |
| COc1cccc(OC)c1NC(=O)CN1CCC(NC(=O)c2cccc(F)c2)CC1 | 6.5% (inactive) |
| O=S(=O)(c1cccc(-n2cnnn2)c1)N1CCOCC1 | -4.6% (inactive) |
| Cc1cccc(N(CC(=O)N/N=C/c2ccc(OCC(=O)NCc3ccco3)cc2)S(C)(=O)=O)c1C | -4.7% (inactive) |
| O=C(O)c1cccc(S(=O)(=O)Nc2ccccc2Cl)c1 | -5.6% (inactive) |
| C=C(C)c1cccc(C(C)(C)NC(=O)Nc2ncccn2)c1 | -2.7% (inactive) |

| Compound | inhibition |
| --- | --- |
| Cc1noc(C)c1S(=O)(=O)N1CCC2(CC1)OCCO2 | 7.1% (inactive) |
| COc1ccc(S(=O)(=O)N2CCCC2C(=O)Nc2ccc(C)cc2)cc1 (centres undefined) | -4% (inactive) |
| Cc1cccnc1N(C(=O)Nc1ccccc1)C1=NCC(C)(C)S1 | -11.8% (inactive) |
| O=C(Nc1ccccc1)/C(=C\c1ccc2c(c1)OCO2)NC(=O)c1ccco1 | -3% (inactive) |
| N#Cc1c(NCc2ccccc2)ccnc1NCc1cccnc1 | -17.4% (inactive) |
| c1ccc(-c2nnc(CSc3nncs3)o2)cc1 | -12% (inactive) |
| O=C(Nc1ccccc1)c1nnsc1S(=O)(=O)c1ccc(Cl)cc1 | 20.4% (inactive) |
| COC(=O)CSc1nc2nc(C)c(Br)cc2[nH]1 | -12.6% (inactive) |
| CN(Cc1ccccc1)S(=O)(=O)c1ccc(NC(=S)NC(=O)C2CCCC2)cc1 | 17.2% (inactive) |
| CCOc1ccccc1/C=N/Nc1ccccc1[N+](=O)[O-] | 5.1% (inactive) |
| CCOC(=O)c1ccc(N2C(=O)CC(N3CCC(O)(c4ccc(Br)cc4)CC3)C2=O)cc1 (centres undefined) | -13.9% (inactive) |
| Cc1cnc(NC(=O)C2CCCC2)s1 | 14.1% (inactive) |
| O=C(NCc1cccs1)c1nc2c(nnn2Cc2ccccc2Cl)c(=O)[nH]1 | 13.8% (inactive) |
| CC(C)Sc1nc2c(c(=O)n1-c1ccc(F)cc1)SCC2 | 7.4% (inactive) |
| CCOC(=O)c1cnc(-n2nc(C)cc2C)nc1NCc1ccccc1 | 7.9% (inactive) |
| COc1ccc(C(C)(C)C)cc1S(=O)(=O)N1CCN(C)CC1 | -3.3% (inactive) |
| N#CCc1nc2c3c4c(sc3ncn2n1)CCCC4 | 62.9% (inactive) |
| CS(=O)(=O)N(CC(=O)NCc1ccccc1Cl)Cc1ccccc1 | -0.5% (inactive) |
| O=C(C1CCC1)N1CCc2cc(S(=O)(=O)Nc3ccc4c(c3)OCCO4)ccc21 | -2.3% (inactive) |
| CCn1c(SCC(=O)Nc2ccc(C(=O)OC)cc2)nnc1-c1cccs1 | 10.1% (inactive) |
| Clc1ccc(C2=Nn3c(nnc3-c3cccnc3)SC2)s1 | 13% (inactive) |
| CCN(CC)C(=O)CN(c1ccc(Cl)cc1)S(=O)(=O)c1ccccc1 | -3.1% (inactive) |
| CCOc1ccc(N2C(=O)CSC2c2ccncc2)cc1 (centres undefined) | 0% (inactive) |
| COc1ccccc1N(C)S(=O)(=O)c1ccc(C(=O)NCC(C)C)cc1 | -6.5% (inactive) |
| CCOC(=O)N1CCC(NC(=O)c2ccc(CS(=O)(=O)c3ccc(OC)cc3)o2)CC1 | -7.8% (inactive) |
| COc1ccc(-c2nc(-c3ccc(NC(=O)c4ccc(Br)o4)cc3)no2)cc1OC | 11.9% (inactive) |

| Compound | inhibition |
| --- | --- |
| Cc1ccccc1-c1nc(CN2CCC(C(=O)NCCCN3CC(C)CC(C)C3)CC2)c(C)o1 (centres undefined) | 21.3% (inactive) |
| CSC1=NCCN1C(=O)Cc1ccc(Cl)cc1 | -11.8% (inactive) |
| CCC(=O)Nc1cccc(C(=O)/C=C/c2cc(Br)ccc2OC)c1 | 10% (inactive) |
| C/C(Cl)=C\Cn1c(NCCCn2ccnc2)nc2c1c(=O)n(C)c(=O)n2C | 4.7% (inactive) |
| Cc1cc(C)cc(OCC(=O)Nc2nonc2NC(=O)COc2cc(C)cc(C)c2)c1 | 12.1% (inactive) |
| COc1ccccc1-c1cn(S(=O)(=O)c2ccc(C)cc2)nc1N | 2.2% (inactive) |
| C=CCOC(=O)C1=C(C)OC(N)=C(C#N)C12C(=O)N(CN1CCOCC1)c1ccccc12 (centres undefined) | -12.1% (inactive) |
| CCOC1=NC(C(=O)O)c2ccccc2/C(=C(/C)Cl)N1 (centres undefined) | 7.8% (inactive) |
| Cc1oc2cc3c(C(=O)N4CCCCC4)c(C)oc3cc2c1C(=O)N1CCCCC1 | 4.7% (inactive) |
| CSc1nnc2n(-c3ccccc3)c(=O)c3c4c(sc3n12)CCC4 | -8.1% (inactive) |
| CCOC(=O)c1cnn(-c2nc3c(C)cccc3s2)c1C | 11% (inactive) |
| CCN1CCC2(CC1)C(C#N)=C(N)Oc1c2sc2nc(C)cc(C)c12 | -4.5% (inactive) |
| CSc1nc2nccc(-c3ccc(Oc4ccccc4)cc3)n2n1 | -5.9% (inactive) |
| Cc1nc(NC(C)C)c2oc3ccccc3c2n1 | 18.8% (inactive) |
| CCn1c(SCC(=O)N2CCN(c3cccc(Cl)c3)CC2)nc2ccccc2c1=O | 8.3% (inactive) |
| COCCCNC(=O)c1cn(C)c(=O)c2cc(OC)c(OC)cc12 | 4.1% (inactive) |
| COC(=O)c1[nH]c2cc(OC)ccc2c1NC(=O)CN1CCC(C(N)=O)(N2CCCCC2)CC1 | -3.9% (inactive) |
| Cc1csc(NC(=O)CSc2nnc(-c3ccc(S(=O)(=O)N4CCCC4)cc3)o2)n1 | 12.9% (inactive) |
| COc1ccc(CC(=O)Nc2ccc(-c3noc(-c4cccc(OC)c4)n3)cc2)cc1 | 5.5% (inactive) |
| CC(C)C(=O)Nc1ccc(C(=O)NNC(=O)NC2CCCCC2)cc1 | -6.3% (inactive) |
| C=C1N2CCC(CC2)C1(O)c1ccccc1C (centres undefined) | -7.5% (inactive) |
| O=[N+]([O-])c1cnccc1Nc1ccc(F)cc1 | 15.4% (inactive) |
| O=C(O)C1CCC(N2C(=O)C3CCCCC3C2=O)CC1 (centres undefined) | 12.7% (inactive) |

Same assay, conditions: TNFa-stimulated cells, VCAM1 expression imaging; cell count; at 10 µM; stronger effect = lower value

| Compound | cell count [%] |
| --- | --- |
| COc1ccc(Oc2cc(NC(=O)c3nn(C)cc3[N+](=O)[O-])cc([N+](=O)[O-])c2)cc1 | 114 |
| Cc1ccc(-c2nc(NC(=O)c3nn(C)cc3[N+](=O)[O-])sc2C)cc1 | 113 |
| N#CCc1nc2c3c4c(sc3ncn2n1)CCCC4 | 87.3 |
